Patent US11739098B2 (BRISTOL-MYERS SQUIBB COMPANY, priority 2017, dated 2023)

Assays:
Type in all cases: cell-based
human TLR9 = target: T1, human TLR9 (Homo sapiens, UniProt Q9NR96); assay: TLR9 inhibition reporter assay (HEK-Blue cells, SEAP reporter, ODN2006 stimulation); conditions: HEK-Blue cells overexpressing human TLR9, SEAP reporter, ODN2006 5 nM
T1 construct: host or cells: HEK-Blue cells (HEK293-derived reporter line)
T1 sequence (Q9NR96 26-1032): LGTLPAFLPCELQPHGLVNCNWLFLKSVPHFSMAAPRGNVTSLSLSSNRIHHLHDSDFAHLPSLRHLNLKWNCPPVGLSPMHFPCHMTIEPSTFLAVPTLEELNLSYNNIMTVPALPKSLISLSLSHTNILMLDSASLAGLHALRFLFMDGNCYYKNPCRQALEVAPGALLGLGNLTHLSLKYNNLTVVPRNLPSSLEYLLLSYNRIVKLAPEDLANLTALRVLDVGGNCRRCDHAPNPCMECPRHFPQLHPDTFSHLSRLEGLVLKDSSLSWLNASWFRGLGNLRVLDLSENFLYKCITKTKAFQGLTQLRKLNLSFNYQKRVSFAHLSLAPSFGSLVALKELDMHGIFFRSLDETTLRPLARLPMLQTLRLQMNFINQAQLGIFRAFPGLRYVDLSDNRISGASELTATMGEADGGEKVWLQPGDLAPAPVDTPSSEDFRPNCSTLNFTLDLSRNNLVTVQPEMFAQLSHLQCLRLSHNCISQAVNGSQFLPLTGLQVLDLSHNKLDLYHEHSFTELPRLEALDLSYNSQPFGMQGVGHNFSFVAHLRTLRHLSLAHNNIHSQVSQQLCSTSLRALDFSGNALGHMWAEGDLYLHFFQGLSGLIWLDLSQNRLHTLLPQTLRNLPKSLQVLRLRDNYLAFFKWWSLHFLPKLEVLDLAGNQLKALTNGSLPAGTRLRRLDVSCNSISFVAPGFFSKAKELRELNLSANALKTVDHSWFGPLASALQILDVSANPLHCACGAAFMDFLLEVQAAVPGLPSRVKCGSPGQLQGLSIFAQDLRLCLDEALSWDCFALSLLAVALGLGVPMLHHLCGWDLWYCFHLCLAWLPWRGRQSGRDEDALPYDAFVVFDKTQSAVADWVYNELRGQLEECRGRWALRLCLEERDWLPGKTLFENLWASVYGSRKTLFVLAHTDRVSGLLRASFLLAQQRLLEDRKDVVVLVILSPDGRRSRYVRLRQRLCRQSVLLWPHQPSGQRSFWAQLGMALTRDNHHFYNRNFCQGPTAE
Method in brief: (§1)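 Agonists (final): TLR7 gardiquimod 7.5 μM; TLR8 R848 15.9 μM; TLR9 ODN2006 5 nM. HEK-Blue reporter cells, 30 min RT compound pre-incubation, 0.05 nM–50 μM dose range, 22 h at 37 °C, colorimetric SEAP detection medium. % inhibition relative to agonist+DMSO and known-inhibitor wells.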

human TLR8 = target: T2, human TLR8 (Homo sapiens, UniProt Q9NR97); assay: TLR8 inhibition reporter assay (HEK-Blue cells, SEAP reporter, R848 stimulation); conditions: HEK-Blue cells overexpressing human TLR8, SEAP reporter, R848 15.9 μM
T2 construct: host or cells: HEK-Blue cells (HEK293-derived reporter line)
T2 sequence (Q9NR97 27-1041): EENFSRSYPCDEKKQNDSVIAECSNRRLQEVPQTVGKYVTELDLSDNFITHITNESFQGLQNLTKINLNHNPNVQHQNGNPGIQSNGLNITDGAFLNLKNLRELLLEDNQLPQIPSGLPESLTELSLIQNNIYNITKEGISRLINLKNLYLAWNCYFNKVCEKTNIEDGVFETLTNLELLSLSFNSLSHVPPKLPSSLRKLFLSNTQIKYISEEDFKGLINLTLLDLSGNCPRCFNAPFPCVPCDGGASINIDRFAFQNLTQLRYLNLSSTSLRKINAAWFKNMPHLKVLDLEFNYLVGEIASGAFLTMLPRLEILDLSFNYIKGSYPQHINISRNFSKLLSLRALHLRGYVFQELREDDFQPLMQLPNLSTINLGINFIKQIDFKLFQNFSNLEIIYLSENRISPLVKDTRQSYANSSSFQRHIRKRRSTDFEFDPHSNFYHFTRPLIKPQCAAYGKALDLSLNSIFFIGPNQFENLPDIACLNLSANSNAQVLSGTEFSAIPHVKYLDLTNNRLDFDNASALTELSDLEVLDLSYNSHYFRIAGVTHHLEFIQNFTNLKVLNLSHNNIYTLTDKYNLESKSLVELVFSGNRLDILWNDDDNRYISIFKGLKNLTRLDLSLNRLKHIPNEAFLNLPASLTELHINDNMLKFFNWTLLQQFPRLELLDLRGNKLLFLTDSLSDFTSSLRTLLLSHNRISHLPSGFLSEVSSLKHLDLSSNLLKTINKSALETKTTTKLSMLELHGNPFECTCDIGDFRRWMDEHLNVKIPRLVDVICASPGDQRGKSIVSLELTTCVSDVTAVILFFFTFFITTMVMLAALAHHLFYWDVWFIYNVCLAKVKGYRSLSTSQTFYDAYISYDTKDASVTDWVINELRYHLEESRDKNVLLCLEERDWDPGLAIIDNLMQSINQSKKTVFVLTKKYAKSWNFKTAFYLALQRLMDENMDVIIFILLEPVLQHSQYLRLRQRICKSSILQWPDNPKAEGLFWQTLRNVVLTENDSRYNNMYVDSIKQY
Method in brief: as §1

human TLR7 = target: T3, human TLR7 (Homo sapiens, UniProt Q9NYK1); assay: TLR7 inhibition reporter assay (HEK-Blue cells, SEAP reporter, gardiquimod stimulation); conditions: HEK-Blue cells overexpressing human TLR7, SEAP reporter, gardiquimod 7.5 μM
T3 construct: host or cells: HEK-Blue cells (HEK293-derived reporter line)
T3 sequence (Q9NYK1 27-1049): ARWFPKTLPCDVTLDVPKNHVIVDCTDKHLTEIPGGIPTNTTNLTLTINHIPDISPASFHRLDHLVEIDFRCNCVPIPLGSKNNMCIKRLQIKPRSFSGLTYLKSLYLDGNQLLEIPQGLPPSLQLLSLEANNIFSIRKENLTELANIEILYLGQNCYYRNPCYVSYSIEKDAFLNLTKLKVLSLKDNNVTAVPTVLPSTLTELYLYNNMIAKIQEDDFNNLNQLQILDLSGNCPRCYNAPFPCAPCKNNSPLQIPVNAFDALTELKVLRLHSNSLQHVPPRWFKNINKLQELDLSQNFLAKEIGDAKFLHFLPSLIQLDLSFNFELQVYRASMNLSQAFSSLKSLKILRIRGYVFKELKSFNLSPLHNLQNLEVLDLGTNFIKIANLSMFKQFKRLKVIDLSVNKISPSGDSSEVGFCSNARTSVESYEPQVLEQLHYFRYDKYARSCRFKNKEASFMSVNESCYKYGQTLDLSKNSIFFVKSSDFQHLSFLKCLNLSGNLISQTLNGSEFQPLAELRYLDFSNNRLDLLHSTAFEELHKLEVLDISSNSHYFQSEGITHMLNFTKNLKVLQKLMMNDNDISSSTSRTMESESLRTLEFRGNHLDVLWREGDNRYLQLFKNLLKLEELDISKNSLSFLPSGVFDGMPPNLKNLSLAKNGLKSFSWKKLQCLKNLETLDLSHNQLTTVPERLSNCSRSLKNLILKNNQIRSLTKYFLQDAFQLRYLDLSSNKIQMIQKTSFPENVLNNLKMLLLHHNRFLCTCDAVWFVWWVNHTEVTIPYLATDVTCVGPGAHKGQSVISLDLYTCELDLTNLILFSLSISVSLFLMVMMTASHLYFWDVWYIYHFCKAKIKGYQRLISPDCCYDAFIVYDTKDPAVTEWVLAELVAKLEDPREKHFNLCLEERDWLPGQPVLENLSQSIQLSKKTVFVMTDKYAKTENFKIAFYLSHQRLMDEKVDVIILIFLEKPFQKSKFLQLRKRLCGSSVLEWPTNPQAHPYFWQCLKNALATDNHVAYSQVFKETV
Method in brief: as §1

IC50 (human TLR9) [nM] | IC50 (human TLR8) [nM] | IC50 (human TLR7) [nM] | Structure (SMILES)
1000 to 50000 | < 100 | < 100 | COc1cc(-c2[nH]c3ccc(C4CCNCC4)cc3c2C(C)C)cc2nc(C)nn12 [Example 155, 7-(3-isopropyl-5-(piperidin-4-yl)-1H-indol-2-yl)-5-methoxy-2-methyl-[1,2,4]triazolo [1,5-a]pyridine]
1000 to 50000 | < 100 | < 100 | Cc1cc2ncnn2nc1-c1[nH]c2ccc(C3CCNCC3)cc2c1C(C)C [Example 31, 6-(3-isopropyl-5-(piperidin-4-yl)-1H-indol-2-yl)-7-methyl-[1,2,4]triazolo[1,5-b]pyridazine]
1000 to 50000 | < 100 | < 100 | Cc1nc2c(-c3[nH]c4ccc(C5CCNCC5)cc4c3C(C)C)cccn2n1 [Example 153, 8-(3-isopropyl-5-(piperidin-4-yl)-1H-indol-2-yl)-2-methyl-[1,2,4]triazolo[1,5-a]pyridine]
100 to 1000 | < 100 | 1000 to 50000 | Cc1ncc(CN2CCC(c3ccc4[nH]c(-c5ccnc6[nH]nc(C)c56)c(C(C)C)c4c3)CC2)[nH]1 [Example 872, 4-(3-isopropyl-5-(1-((2-methyl-1H-imidazol-5-yl)methyl)piperidin-4-yl)-1H-indol-2-yl)-3-methyl-1H-pyrazolo[3,4-b]pyridine]
100 to 1000 | < 100 | < 100 | CC(C)c1c(-c2ccnc3[nH]ncc23)[nH]c2ccc(C3CCN(CCN)CC3)cc12 [Example 655, 2-(4-(3-isopropyl-2-(1H-pyrazolo[3,4-b]pyridin-4-yl)-1H-indol-5-yl)piperidin-1-yl)ethan-1-amine]
1000 to 50000 | < 100 | < 100 | Cc1c(-c2[nH]c3ccc(C4CCNCC4)cc3c2C(C)C)cn2ccnc2c1Cl [Example 133, 8-chloro-6-(3-isopropyl-5-(piperidin-4-yl)-1H-indol-2-yl)-7-methylimidazo[1,2-a]pyridine]
100 to 1000 | < 100 | < 100 | Cc1c(-c2[nH]c3ccc(C4CCNCC4)cc3c2C(C)C)cn2ccnc2c1C [Example 271, 6-(3-isopropyl-5-(piperidin-4-yl)-1H-indol-2-yl)-7,8-dimethylimidazo[1,2-a]pyridine]
100 to 1000 | 100 to 1000 | < 100 | CC(C)c1c(-c2ccnc3[nH]ncc23)[nH]c2cc(C(F)(F)F)c(C3CCN(CC4CCN(C(C)C)C4)CC3)cc12 (stereo not drawn) [Example 854, 4-(3-isopropyl-5-(1-((1-isopropylpyrrolidin-3-yl)methyl)piperidin-4-yl)-6-(trifluoromethyl)-1H-indol-2-yl)-1H-pyrazolo[3,4-b]pyridine]

Second part, the compound before the results:

Structure (SMILES) | IC50 (human TLR9) [nM] | IC50 (human TLR8) [nM] | IC50 (human TLR7) [nM]
Cc1cc(-c2[nH]c3ccc(C4CCNCC4)cc3c2C(C)C)cc2ncnn12 [Example 154, 7-(3-isopropyl-5-(piperidin-4-yl)-1H-indol-2-yl)-5-methyl-[1,2,4]triazolo[1,5-a]pyridine] | 1000 to 50000 | < 100 | < 100
Cc1cc(-c2[nH]c3ccc(C4CCNCC4)cc3c2C(C)C)nc2scnc12 [Example 101, 5-(3-isopropyl-5-(piperidin-4-yl)-1H-indol-2-yl)-7-methylthiazolo[5,4-b]pyridine] | 1000 to 50000 | < 100 | < 100
OCc1c(-c2ccnc3[nH]ncc23)[nH]c2ccc(C3CCNCC3)cc12 [Example 176, (5-(piperidin-4-yl)-2-(1H-pyrazolo[3,4-b]pyridin-4-yl)-1H-indol-3-yl)methanol] | 1000 to 50000 | 1000 to 50000 | 1000 to 50000
CC(C)c1c(-c2ccc3occc3c2)[nH]c2ccc(C3CCNCC3)cc12 [Example 67, 2-(benzofuran-5-yl)-3-isopropyl-5-(piperidin-4-yl)-1H-indole] | 1000 to 50000 | 100 to 1000 | 100 to 1000
CC(C)c1c(-c2ccn3cnnc3c2)[nH]c2ccc(C3CCN(Cc4ncn(C)n4)CC3)cc12 [Example 880, 7-(3-isopropyl-5-(1-((1-methyl-1H-1,2,4-triazol-3-yl)methyl)piperidin-4-yl)-1H-indol-2-yl)-[1,2,4]triazolo[4,3-a]pyridine] | 1000 to 50000 | 100 to 1000 | 100 to 1000
Cc1nnn2ccc(-c3[nH]c4ccc(C5CCN(C6CCS(=O)(=O)CC6)CC5)cc4c3C(C)C)cc12 [Example 792, 4-(4-(3-isopropyl-2-(3-methyl-[1,2,3]triazolo[1,5-a]pyridin-5-yl)-1H-indol-5-yl)piperidin-1-yl)tetrahydro-2H-thiopyran 1,1-dioxide] | 1000 to 50000 | < 100 | < 100
Cc1cn2cc(-c3[nH]c4ccc(C5CCN(C(C)C)CC5)cc4c3C(C)C)ccc2n1 [Example 945, 6-(3-isopropyl-5-(1-isopropylpiperidin-4-yl)-1H-indol-2-yl)-2-methylimidazo[1,2-a]pyridine] | 100 to 1000 | 100 to 1000 | < 100
